According to paper PMC4513223 (Clinical Pharmacokinetics, 2015):
Like-named read-outs stand apart in the source and are kept apart here.

Key:
[1] = Non-compartmental plasma pharmacokinetics after a single oral filgotinib dose; type: in vivo; conditions: male, human
[2] = type: in vivo, human; conditions: for Tmax / AUC(0-t) / Cmax / concentration at 12 h / concentration at 24 h: oral
[3] = Population pharmacokinetic model; type: in vivo, human; conditions: estimate (% RSE)
[4] = tested on: JAK1 (IL-6-induced STAT1 phosphorylation); type: cell-based, human; conditions: sigmoid Emax model, common to filgotinib and metabolite; estimate (% RSE)
[5] = tested on: JAK1; conditions: human whole blood; cited from earlier work

Compound: O=C(Nc1nc2cccc(-c3ccc(CN4CCS(=O)(=O)CC4)cc3)n2n1)C1CC1 [Filgotinib]
- AUC(0-inf) ([1]; 10 mg): 136 ng·h/mL
- Cmax ([1]; 10 mg): 35.7 ng/mL
- Tmax ([1]; 10 mg): 1 h
- half-life ([1]; 10 mg): 6.38 h
- AUC(0-inf) ([1]; 25 mg): 348 ng·h/mL
- Cmax ([1]; 25 mg): 83 ng/mL
- Tmax ([1]; 25 mg): 2.5 h
- half-life ([1]; 25 mg): 5.72 h
- AUC(0-inf) ([1]; 50 mg): 771 ng·h/mL
- Cmax ([1]; 50 mg): 247 ng/mL
- Tmax ([1]; 50 mg): 2 h
- half-life ([1]; 50 mg): 5.28 h
- AUC(0-inf) ([1]; 100 mg): 1740 ng·h/mL
- Cmax ([1]; 100 mg): 565 ng/mL
- Tmax ([1]; 100 mg): 2 h
- half-life ([1]; 100 mg): 4.91 h
- AUC(0-inf) ([1]; 200 mg): 4840 ng·h/mL
- Cmax ([1]; 200 mg): 1160 ng/mL
- Tmax ([1]; 200 mg): 3 h
- half-life ([1]; 200 mg): 5.68 h
- Tmax ([2]; male, human, plasma): 0.5 to 5 h
- AUC(0-t) ([2]; male, human, plasma, 25 mg): 346 ng·h/mL
- Cmax ([2]; male, human, plasma, 25 mg): 144 ng/mL
- Tmax ([2]; male, human, plasma, 25 mg): 0.5 h
- concentration at 12 h ([2]; male, human, plasma, 25 mg): 3.75 ng/mL
- AUC(0-t) ([2]; male, human, plasma, 50 mg): 758 ng·h/mL
- Cmax ([2]; male, human, plasma, 50 mg): 211 ng/mL
- Tmax ([2]; male, human, plasma, 50 mg): 1.5 h
- concentration at 12 h ([2]; male, human, plasma, 50 mg): 9.52 ng/mL
- AUC(0-t) ([2]; male, human, plasma, 100 mg): 2380 ng·h/mL
- Cmax ([2]; male, human, plasma, 100 mg): 556 ng/mL
- Tmax ([2]; male, human, plasma, 100 mg): 3 h
- concentration at 12 h ([2]; male, human, plasma, 100 mg): 27.8 ng/mL
- AUC(0-t) ([2]; male, human, plasma, 200 mg): 4450 ng·h/mL
- Cmax ([2]; male, human, plasma, 200 mg): 1200 ng/mL
- Tmax ([2]; male, human, plasma, 200 mg): 2 h
- concentration at 24 h ([2]; male, human, plasma, 200 mg): 6.04 ng/mL
- AUC(0-t) ([2]; male, human, plasma, 300 mg): 4400 ng·h/mL
- Cmax ([2]; male, human, plasma, 300 mg): 1380 ng/mL
- Tmax ([2]; male, human, plasma, 300 mg): 1.5 h
- concentration at 24 h ([2]; male, human, plasma, 300 mg): 9.93 ng/mL
- AUC(0-t) ([2]; male, human, plasma, 450 mg): 10200 ng·h/mL
- Cmax ([2]; male, human, plasma, 450 mg): 2580 ng/mL
- Tmax ([2]; male, human, plasma, 450 mg): 2.5 h
- concentration at 24 h ([2]; male, human, plasma, 450 mg): 17.6 ng/mL
- half-life ([2]; male, human, plasma, po, elimination half-life, average, oral administration): 6 h
- accumulation at steady state ([2]; repeated dosing): no accumulation
- time to steady state of plasma concentrations ([2]; repeated dosing, regardless of dose and regimen (once or twice daily)): ≤ 2 days
- Effect of sex (on V C/F) ([3]; covariate effect): 2.95 (47.7)
- Relative increase in bioavailability in RA patients vs healthy volunteers [3]: 0.216 (39.0)
- ka (first-order absorption rate constant) ([3]; log-transformed parameter): −0.733 (5.64) /h
- FRAC300 mg ([3]; probit-transformed parameter, 300 mg dose): 0.375 (23.9)
- FRAC450 mg ([3]; probit-transformed parameter, 450 mg dose): 0.363 (38.5)
- log H (hill factor) [4]: 0.680 (27.7)
- selectivity for JAK1- over JAK2-dependent signaling [5]: 30 fold
